ChEMBL document CHEMBL4257560, “Synthesis and antiviral activity of camphor-based 1,3-thiazolidin-4-one and thiazole derivatives as Orthopoxvirus-reproduction inhibitors” (Medchemcomm, 2018)

How the values were obtained:
Vaccinia virus = experiment: Antiviral activity against Vaccinia virus Copenhagen infected in African green monkey Vero cells assessed as inhibition of viral reproduction after 4 days by neural red dye-based assay; assay type: functional, organism-based, Orthopoxvirus vaccinia
[1] = Cytotoxicity against African green monkey Vero cells after 4 days by neural red dye-based assay; assay type: cell-based; details: chlorocebus sabaeus, read-out: TC50
[2] = Selectivity index, ratio of TC50 for African green monkey Vero cells to IC50 for Vaccinia virus Copenhagen; assay type: toxicity; details: read-out: Selectivity Index
[3] = Orthopoxvirus vaccinia, Copenhagen, Vero, 96 h, read-out: IC50

Row | Structure (SMILES) | IC50 (Vaccinia virus; vero) | CC50 at 96 h [1] [µM] | IC50 (Vaccinia virus; [3]) [µM] | selectivity ratio [2]
1 | CC1(C)[C@@H]2CC[C@@]1(C)/C(=N/Nc1nc(-c3ccc(F)cc3)cs1)C2 | Not Active | 176 |  | 
2 | Cc1ccc(-c2csc(N/N=C3\C[C@H]4CC[C@]3(C)C4(C)C)n2)cc1 |  | 13.7 | 4.5 | 3
3 | CC1(C)[C@@H]2CC[C@@]1(C)/C(=N/Nc1nc(-c3ccc(Br)cc3)cs1)C2 |  | 77.1 | 2.4 | 32
4 | CC1(C)[C@@H]2CC[C@@]1(C)/C(=N/Nc1nc(-c3ccccc3)cs1)C2 |  | 13.9 | 3.2 | 
5 | CCCCN1C(=O)CS/C1=N\N=C1/C[C@H]2CC[C@]1(C)C2(C)C |  | 25.2 | 3.2 | 8
6 | COc1ccc(-c2csc(N/N=C3\C[C@H]4CC[C@]3(C)C4(C)C)n2)cc1 |  | 93.6 | 3.7 | 26
7 | Cc1ccc(/C=C2\S/C(=N\N=C3/C[C@H]4CC[C@]3(C)C4(C)C)NC2=O)cc1 (stereo in doubt) |  | 120 | 9.5 | 13
8 | CC1(C)[C@@H]2CC[C@@]1(C)/C(=N/NC(N)=S)C2 |  | 225 | 17.7 | 13
9 | CC1(C)[C@H]2CC[C@]1(C)[C@H](OC(=O)CCN1CCOCC1)C2 |  |  | 3.5 | 
10 | CC1(C)[C@@H]2CC[C@@]1(C)/C(=N/N=C1/NC(=O)/C(=C/c3ccccc3)S1)C2 |  | 14.5 | 5.2 | 3
11 | CC(C)CCN1C(=O)CS/C1=N\N=C1/C[C@H]2CC[C@]1(C)C2(C)C | Not Active | 37.5 |  | 
12 | CC1(C)[C@@H]2CC[C@@]1(C)/C(=N/N=C1/NC(=S)CS1)C2 |  | 17.5 | 3.3 | 5
13 | Nc1ccn(C[C@@H](CO)OCP(=O)(O)O)c(=O)n1 [CIDOFOVIR] |  | 475 | 40 | 12
14 | CC1(C)[C@@H]2CC[C@@]1(C)/C(=N/Nc1nc(-c3ccc([N+](=O)[O-])cc3)cs1)C2 | Not Active | 261 |  | 
15 | CC1(C)[C@@H]2CC[C@@]1(C)/C(=N/N=C1\SCC(=O)N1Cc1ccccc1)C2 | Not Active | 288 |  | 
16 | C=CCN1C(=O)CS/C1=N\N=C1/C[C@H]2CC[C@]1(C)C2(C)C |  | 164 | 14.4 | 11
17 | CC1CCN(CCC(=O)N[C@@H]2C[C@H]3CC[C@]2(C)C3(C)C)CC1 |  |  | 2.5 | 
18 | CC1(C)[C@@H]2CC[C@@]1(C)/C(=N/Nc1nc(-c3ccc(Cl)cc3)cs1)C2 |  | 64.1 | 2.7 | 24
19 | CC1(C)[C@@H]2CC[C@@]1(C)/C(=N/N=C1/NC(=O)CS1)C2 | Not Active | 305 |  | 
